Here are results for five molecules from PubChem BioAssay (NCI).

Each structure is given as a SMILES string.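 96-well plates; 48 h exposure; 5 concentrations. Endpoints by linear interpolation between flanking doses. Not reached: highest tested concentration assigned. The concentration for full growth arrest is given as TGI.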

What all share (test): growth of human tumour cells (NCI), 48 h
The subject of assay [1] is 786-0 renal.
Assay [2] concerns KM12 colon.
Assay [3] deals with OVCAR-3 ovarian.
Assay [4] concerns A549 NSCLC.
The subject of assay [5] is RXF 393 renal.
Assay [6] deals with HCT-116 colon.
Assay [7] relates to SK-OV-3 ovarian.
In assay [8] the test system is BT-549 breast.
The subject of assay [9] is HCT-15 colon.
The test system of assay [10] is EKVX NSCLC.
Assay [11] relates to SF-295 CNS.
The subject of assay [12] is OVCAR-8 ovarian.
For assay [13], the system named is HL-60(TB) leukemia.
The test system of assay [14] is SK-MEL-5 melanoma.
Assay [15] concerns UO-31 renal.
Assay [16] concerns K-562 leukemia.
Assay [17] deals with HOP-92 NSCLC.
The subject of assay [18] is OVCAR-5 ovarian.
For assay [19], the system named is SW-620 colon.
The test system of assay [20] is IGROV1 ovarian.

Take `Cn1c(-c2cccs2)cc(-c2ccccc2)c1-c1cccs1`: the TGI in assay [1] was over 100 µM; in assay [2], over 100 µM; in [3], 47.6 µM; in assay [4] it was 45.7 µM; in assay [5] it was over 100 µM; in [6] it was over 100 µM. Besides, the TGI in [7], in assay [8], in assay [9], in assay [10], in assay [11] and in assay [12] was over 100 µM each time. Besides, the TGI in assay [13], in [14], in assay [15], in [16], in assay [17] and in assay [18] was over 100 µM each time. Also, the TGI in [19] and in [20] was over 100 µM each time.
For `CCN(CC)c1ccc(/C=C2/C[N+](C)(C)C/C(=C/c3ccc(N(CC)CC)cc3)C2=O)cc1`, the TGI in assay [1] is 13.6 µM; in [2], 2.91 µM; in [3], 7.31 µM; in [4] it was over 100 µM; in assay [5], 10.3 µM; in assay [6] it was 7.77 µM. In addition, the TGI is over 78.5 µM in assay [7]; 3.43 µM in [8]; over 100 µM in assay [9]; 75.7 µM in assay [10]; over 90.6 µM in assay [11]; 14.7 µM in assay [12]. The TGI in [13] is 2.16 µM; in assay [14], 3.62 µM; in [15], over 100 µM; in [16] it was 7.91 µM; in [17] it was 4.8 µM; in [18] it was 50.4 µM. Besides, the TGI came to 13.5 µM in assay [19] and 6.57 µM in assay [20].
In the case of `CC(=O)NNc1nc(C)c(C(/C=C/c2ccc([N+](=O)[O-])cc2)=N/N)s1`, the TGI in assay [1], in [2], in assay [3], in assay [4], in assay [5] and in [6] was over 100 µM in each case. Also, the TGI in [7], in assay [8], in assay [9], in [10], in assay [11] and in [12] was over 100 µM in each case. The TGI in assay [13], in assay [14], in assay [15], in assay [16], in assay [17] and in assay [18] was over 100 µM each time. The TGI in [19] and in assay [20] was over 100 µM throughout.
`N#CC(c1ccnc(Cl)n1)c1nc2ccccc2s1` (stereo not given): the TGI in assay [1] is 16.1 µM; in assay [2] it was over 45.9 µM; in assay [3], 26.2 µM; in [4], 52.4 µM; in assay [5], over 62.7 µM; in assay [6], 9.38 µM. Besides, the TGI was 16 µM in assay [7]; over 26 µM in assay [8]; 14.8 µM in [9]; over 74.6 µM in assay [10]; 31.5 µM in assay [11]; over 41.2 µM in assay [12]. Besides, the TGI in assay [13] is 5.43 µM; in assay [14], 3.1 µM; in [15], 28.4 µM; in assay [16] it was 76.2 µM; in assay [17], 14.1 µM; in assay [18], over 92.5 µM. The TGI in [19] was over 70.7 µM; in assay [20], over 53.2 µM.
Consider `CN(C)c1ccc(/C=C(\NC(=O)c2ccccc2)C(=O)NCC(=O)O)cc1`, for which the TGI in assay [1], in [2], in assay [3], in [4], in [5] and in assay [6] was over 100 µM in each case. Further, the TGI in assay [7], in [8], in assay [9], in assay [10], in [11] and in [12] was over 100 µM each time. In addition, the TGI in assay [13], in assay [14], in assay [15], in assay [16], in [17] and in [18] was over 100 µM each time. For the same molecule, the TGI in [19] and in assay [20] was over 100 µM each time.
